For this assay, the target named is T1, Cystic fibrosis transmembrane conductance regulator [1-507,509-1480] (Human, UniProt P13569, DEL508-508).
T1 construct: 1-507,509-1480
Nature of the assay: Chamber Assay of CFTR-mediated short-circuit currents. As to the method: ssing chamber experiments were performed using human bronchial epithelial (HBE) cells derived from CF subjects heterozygous for F508del and a minimal function CFTR mutation (F508del/MF-HBE) and cultured as previously described (Neuberger T, Burton B, Clark H, Van Goor F Methods Mol Biol 2011:741:39-54). After four days the apical media was removed, and the cells were grown at an air liquid interface for >14 days prior to use. […] To isolate the CFTR-mediated short-circuit (ISC) current, F508del/MF-HBE grown on Costar Snapwell cell culture inserts were mounted in an Ussing chamber and the transepithelial ISC was measured under voltage-clamp recording conditions (Vhold= 0 mV) at 37 °C. The basolateral solution contained (in mM) 145 NaCl, 0.83 K2HPO4, 3.3 KH2PO4, 1.2 MgCl2, 1.2 CaCl2, 10 Glucose, 10 HEPES (pH adjusted to 7.4 with NaOH) and the apical solution contained (in mM) 145 NaGluconate, 1.2 MgCl2, 1.2 CaCl2, 10 glucose, 10 HEPES (pH adjusted to 7.4 with NaOH) and 30 µM amiloride to block the epithelial sodium channel. Forskolin (20 µM) was added to the apical surface to activate CFTR, followed by apical addition of a CFTR inhibitor cocktail consisting of BPO, GlyH-101 and CFTR inhibitor 172 (each at 20 µM final assay concentration) to specifically isolate CFTR currents. The CFTR-mediated ISC (µA/cm2) for each condition was determined from the peak forskolin response to the steady-state current following inhibition.

SMILES strings stand for the structures. A value given as a limit tells only on which side of the number the result lay.

T1 sequence (P13569 as listed by the source): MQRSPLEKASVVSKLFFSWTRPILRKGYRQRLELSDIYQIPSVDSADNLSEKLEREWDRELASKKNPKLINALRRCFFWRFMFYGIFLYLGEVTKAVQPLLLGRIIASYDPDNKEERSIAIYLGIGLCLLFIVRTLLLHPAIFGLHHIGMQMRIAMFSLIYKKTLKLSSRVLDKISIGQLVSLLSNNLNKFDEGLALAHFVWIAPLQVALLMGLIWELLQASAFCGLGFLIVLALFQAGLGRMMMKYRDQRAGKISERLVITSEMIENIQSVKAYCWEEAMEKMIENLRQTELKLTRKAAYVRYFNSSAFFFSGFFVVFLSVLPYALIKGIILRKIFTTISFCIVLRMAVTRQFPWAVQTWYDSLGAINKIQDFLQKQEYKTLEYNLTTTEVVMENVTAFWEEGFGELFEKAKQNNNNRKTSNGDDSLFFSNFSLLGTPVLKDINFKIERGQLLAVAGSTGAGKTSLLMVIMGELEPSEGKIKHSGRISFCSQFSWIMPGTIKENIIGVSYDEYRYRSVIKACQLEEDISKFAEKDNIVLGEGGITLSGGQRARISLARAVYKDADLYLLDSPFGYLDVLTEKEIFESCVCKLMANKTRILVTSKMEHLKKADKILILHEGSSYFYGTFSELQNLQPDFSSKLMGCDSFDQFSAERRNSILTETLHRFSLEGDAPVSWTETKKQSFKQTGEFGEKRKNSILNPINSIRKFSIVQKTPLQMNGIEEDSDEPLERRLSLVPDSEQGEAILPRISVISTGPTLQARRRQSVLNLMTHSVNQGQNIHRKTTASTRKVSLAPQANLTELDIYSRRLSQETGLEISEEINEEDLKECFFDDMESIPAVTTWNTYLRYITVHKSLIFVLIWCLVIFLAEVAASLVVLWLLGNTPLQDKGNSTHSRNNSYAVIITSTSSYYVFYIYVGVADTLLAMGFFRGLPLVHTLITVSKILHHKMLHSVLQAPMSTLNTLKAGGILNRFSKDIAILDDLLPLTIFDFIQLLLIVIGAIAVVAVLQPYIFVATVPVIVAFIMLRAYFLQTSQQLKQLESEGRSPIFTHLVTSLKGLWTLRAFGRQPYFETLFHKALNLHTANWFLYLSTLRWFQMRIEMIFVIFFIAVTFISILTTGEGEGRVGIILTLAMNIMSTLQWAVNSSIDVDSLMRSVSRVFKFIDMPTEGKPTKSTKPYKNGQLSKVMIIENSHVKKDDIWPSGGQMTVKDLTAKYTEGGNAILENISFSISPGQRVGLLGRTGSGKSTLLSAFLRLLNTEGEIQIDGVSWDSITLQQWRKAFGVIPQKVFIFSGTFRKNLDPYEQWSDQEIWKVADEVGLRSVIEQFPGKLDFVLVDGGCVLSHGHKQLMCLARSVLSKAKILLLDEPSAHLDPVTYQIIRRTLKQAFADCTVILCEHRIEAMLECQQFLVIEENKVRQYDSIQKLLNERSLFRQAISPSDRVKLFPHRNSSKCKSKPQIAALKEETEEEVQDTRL

For the compound `CC1(O)CCCCC[C@@H]2CCCN2c2nc(c(N)cc2C(F)(F)F)C2=NN=C1O2` (stereo partly specified) [WO2022109573, Compound 45], the EC50 – broadly, the midpoint of the concentration-response curve – was below 500 nM.

On to `Nc1cc(C(F)(F)F)c2nc1-c1nnc(o1)[C@@](O)(C(F)(F)F)CCCCCC[C@H]1CCCN21` [WO2022109573, Compound 24], for which the EC50 is below 500 nM.

The compound `Nc1cc(C(F)(F)F)c2nc1-c1nnc(o1)[C@@](O)(C(F)(F)F)CCCCCC[C@@H]1CCCN21` [WO2022109573, Compound 23] came in with an EC50 below 500 nM.

As for `Nc1cc(C(F)(F)F)c2nc1-c1nnc(o1)[C@@](O)(C(F)(F)F)CCCC[C@@H]1CCCN21` [WO2022109573, Compound 17], the EC50 is below 500 nM.

`Nc1cc(C(F)(F)F)c2nc1-c1nnc(o1)C(O)(C(F)(F)F)CCCC(=O)N1CCN2CC1` (stereo unspecified) [WO2022109573, Compound 37] yielded an EC50 below 500 nM.

`Nc1cc(C(F)(F)F)c2nc1-c1nnc(o1)C(O)(C(F)(F)F)CCCCCCN2CCO` (stereo unspecified) [WO2022109573, Compound 41] displayed an EC50 below 500 nM.

The compound `Nc1cc(C(F)(F)F)c2nc1-c1nnc(o1)[C@](O)(C(F)(F)F)CCCCC[C@@H]1CCCN21` [WO2022109573, Compound 4] returned an EC50 below 500 nM.

Compound `Nc1cc(C(F)(F)F)c2nc1-c1nnc(o1)[C@](O)(C(F)(F)F)CCCCCC[C@H]1CCCN21` [WO2022109573, Compound 25] came in with an EC50 below 500 nM.

Regarding `Nc1cc(C(F)(F)F)c2nc1-c1nnc(o1)/C(=N\O)CCCCC[C@@H]1CCCN21` [WO2022109573, Compound 31], the EC50 is below 500 nM.

Compound `CCOC(=O)CN1CCCCCCC(O)(C(F)(F)F)C2=NN=C(O2)c2nc1c(C(F)(F)F)cc2N` (stereo unspecified) [WO2022109573, Compound 46] came in with an EC50 below 500 nM.

Compound `CCNc1cc(C(F)(F)F)c2nc1-c1nnc(o1)[C@@](O)(C(F)(F)F)CCCCC[C@@H]1CCCN21` [WO2022109573, Compound 14] displayed an EC50 below 500 nM.

`Nc1cc(C(F)(F)F)c2nc1-c1nnc(o1)C(O)(C(F)(F)F)CCCC[C@@H]1CCCN21` (stereo partly specified) [WO2022109573, Compound 32] had an EC50 below 500 nM.

Take `Nc1cc(C(F)(F)F)c2nc1-c1nnc(o1)[C@](O)(C(F)(F)F)CCCCC1CCN2C1` (stereo partly specified) [WO2022109573, Compound 9]: the EC50 is below 500 nM.

With `Nc1cc(C(F)(F)F)c2nc1-c1nnc(o1)[C@@](O)(C(F)(F)F)CCCC[C@H]1CCCN21` [WO2022109573, Compound 18], the EC50 is below 500 nM.

`CC1(C)CC2CCCCCC(O)(C(F)(F)F)C3=NN=C(O3)c3nc(c(C(F)(F)F)cc3N)N2C1` (stereo unspecified) [WO2022109573, Compound 29] showed an EC50 below 500 nM.

`CNc1cc(C(F)(F)F)c2nc1-c1nnc(o1)[C@@](O)(C(F)(F)F)CCCCC[C@@H]1CCCN21` [WO2022109573, Compound 13] came in with an EC50 below 500 nM.

The compound `CN1CCCCCCC(O)(C(F)(F)F)C2=NN=C(O2)c2nc1c(C(F)(F)F)cc2N` (stereo unspecified) [WO2022109573, Compound 19] showed an EC50 below 500 nM.

Regarding `Nc1cc(C(F)(F)F)c2nc1-c1nnc(o1)[C@@](O)(C(F)(F)F)CCCCC1CCN2C1` (stereo partly specified) [WO2022109573, Compound 8], the EC50 is below 500 nM.

The compound `Nc1cc(C(F)(F)F)c2nc1-c1nnc(o1)[C@](O)(C(F)(F)F)CCCCC[C@H]1CCCN21` [WO2022109573, Compound 7] came in with an EC50 below 500 nM.

Compound `Nc1cc(C(F)(F)F)c2nc1-c1nnc(o1)C(=O)CCCCC[C@@H]1CCCN21` [WO2022109573, Compound 36] showed an EC50 below 500 nM.

`Nc1cc(C(F)(F)F)c2nc1-c1nnc(o1)C(O)CCCCC[C@@H]1CCCN21` (stereo partly specified) [WO2022109573, Compound 21]: the EC50 is below 500 nM.
